Patent US20250034200A1, “Prodrugs of Neurosteroid Analogs and Uses Thereof” (priority 2021, published 2025)
Where a name gives a salt, the structure may show the parent alone.

Key:
[1] = Nephelometry (aqueous solubility); type: physicochemical; details: DPBS with 1% DMSO, aqueous buffer, kinetic from dmso stock, DPBS pH 7.0-7.3, 1% DMSO, 25° C.
Description: Well A1 of the plate contained 100% DMSO.

[2] = Aqueous stability assay (HPLC, pseudo first-order half-life); type: physicochemical; details: for stability in the acidic aqueous mediums: pH 4.0 and 5.5
[3] = Plasma stability assay (LC-MS/MS); type: in vitro ADME; details: for formation of the corresponding oxime (progesterone C20-oxime) / half-life: human plasma; for half-life: 37° C., 3 μM, read-out: Plasma t1/2 (converted)
Method in brief: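 Compound (3 μM final; 0.03% DMSO, up to 0.6% methanol) was incubated in human plasma at 37° C for up to 240 min, sampled at 0, 15, 30, 60, 120, 180 and 240 min in duplicate. Samples were quenched in cold acetonitrile or methanol with internal standard and quantified by LC-MS/MS (ESI+, MRM). Stability was derived from the slope of ln(% parent remaining) versus time.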

[4] = test system: rat disease model of acute TBI; assay: Edema assay in rat model of acute TBI (controlled cortical impact); type: in vivo; details: for reduced brain edema: 10 mg/kg IM at 1 and 6 h post-TBI, edema at 24 h
Protocol: A prodrug dose of 10 mg/kg was chosen and administered IM at 1 and 6 hours post-injury. Prodrug dosage is equimolar±5% with respective to the parent compound.
Subjects—Male SD rats weighing 250-350 g at the time of injury were used for the efficacy study, which was conducted in our facility at Emory University. The rats were maintained on a reverse 12:12 light-dark cycle at 22±1° C. with appropriate humidity levels. After one week of quarantine the rats were handled at least 3 times prior to surgery. This study was conducted in a facility approved by the American Association for the Accreditation of Laboratory Animal Care (AAALAC) in accordance with all National Institutes of Health guidelines. All experimental animal procedures were approved by the Emory University Institutional Animal Care and Use Committee.
Contusion Injury—Rats were anesthetized using isoflurane gas (5% induction, 1.5% maintenance, 700 mmHg N2O, 500 mmHg O2) and then mounted in a Kopf stereotaxic device (David Kopf Instruments, Tujunga, CA, USA). The scalp incision area was shaved and sterilized with Betadine® antiseptic and 70% isopropanol. Physiological parameters were monitored with pulse oximetry (SurgiVet model V3304): heart rate was maintained above ˜300 beats per minute and SpO2 kept above 90%. Core body temperature (˜37° C.) was maintained with a homeothermic heating blanket system (Harvard Apparatus, Holliston, MA, USA). Under aseptic conditions, a midline incision was made into the skin and fascia covering the skull. Cotton swabs were used to staunch and clean any fascial bleeding. […]
Treatment—Animals were randomly assigned to one of four treatment groups. […] Percent change in brain tissue water content was measured.
Edema Assay—Edema was measured at 24 h after surgery. […] The percent water content was calculated by [(wet wt-dry wt)/wet wt]×100. The percent difference in water content between the anterior peri-contusional and the posterior distal section was calculated for each sample by: [(anterior H2O %-posterior H2O %)/(posterior H2O %)]×100.

[5] = Rat plasma pharmacokinetic study; details: IV and IM routes
Protocol: Test System—Healthy male Sprague Dawley rats (8-12 weeks old) weighing between 200 to 250 g were procured from Global, India. […] Temperature and humidity were maintained at 22±3° C. and 30-70%, respectively and illumination was controlled to give a sequence of 12 h light and 12 h dark cycle. Temperature and humidity were recorded by auto-controlled data logger system. All the animals were provided with laboratory rodent diet (Envigo Research private Ltd, Hyderabad). Reverse osmosis water treated with ultraviolet light was provided ad libitum.
Design—Rats (n=3 per treatment group, serial sampling) were administered a solution of either normal saline vehicle or test compound in normal saline at 2 mg/kg (IV) or 10 mg/kg (IM) with a dosing volume of 5 mL/kg (IV) or 1 mL/kg (IM).
Sample Collection—Blood samples (approximately 60 μL) were collected under light isoflurane anesthesia (Surgivet®) from retro orbital plexus from a set of three rats at 0.08, 0.25, 0.5, 1, 2, 4, 6, 8 and 10 h (IV) or 0.25, 0.5, 1, 2, 4, 6, 8 and 10 h (IM). Immediately after blood collection, plasma was harvested by centrifugation 4000 rpm, 10 min at 40° C. and samples were stored at −70±10° C. until bioanalysis.
Data Analysis—Concentrations of the test compound and its parent compound, progesterone C20-oxime, in rat plasma were determined by fit-for-purpose LC-MS/MS method by Sai Life Sciences. […] Cmax represents the mean observed maximum concentration of analyte. Tmax represents the average time at observed Cmax. Areas under the curve (AUC0-last) were calculated via the linear trapezoidal rule using GraphPad Prism v9.

[6] = acetate buffer pH 4.0, read-out: Acetate buffer (pH 4.0) t1/2 (converted)
[7] = acetate buffer pH 5.5, read-out: Acetate buffer (pH 5.5) t1/2 (converted)

SMILES | solubility at 90 min [1] [µM] | PBS t1/2 ([2]; DPBS pH 7.0-7.3, 1 mg/mL, room temperature) [h] | half-life [2, 6] [days] | half-life [2, 7] [days] | stability in the acidic aqueous mediums [2] | stability in human plasma [3] | formation of the corresponding oxime (progesterone C20-oxime) [3] | half-life [3] [min] | reduced brain edema [4] [%] | formation of parent progesterone C20-oxime [5] | half-life ([2]; buffer, DPBS pH 7.0-7.3, 1 mg/mL, room temperature, read-out: PBS t1/2 (converted)) [days] | reducing brain edema, comparison with EIDD-1723 ([4]; 10 mg/kg dose IM)
CNCCN(C)C(=O)O/N=C(\C)[C@H]1CC[C@H]2[C@@H]3CCC4=CC(=O)CC[C@]4(C)[C@H]3CC[C@]12C [32b, (E)-9-((8S,9S,10R,13S,14S,17S)-10,13-dimethyl-3-oxo-2,3,6,7,8,9,10,11,12,13,14,15,16,17-tetradecahydro-1H-cyclopenta[a]phenanthren-17-yl)-5-methyl-7-oxa-2,5,8-triazadec-8-en-6-one hydrochloride] | > 750 | 46.9 ± 0.8 | 96 | 80 | stable | unstable | observed | 90 | 31 |  |  | 
C/C(=N\OC(=O)N(C)C[C@@H]1CCCN1)[C@H]1CCC2[C@@H]3CCC4=CC(=O)CC[C@]4(C)[C@H]3CC[C@@]21C.Cl (stereo partly drawn) [32j, (8S,9S,10R,13S,17S)-10,13-dimethyl-17-((E)-1-(((methyl(((S)-pyrrolidin-2-yl)methyl)carbamoyl)oxy)imino)ethyl)-1,2,6,7,8,9,10,11,12,13,14,15,16,17-tetradecahydro-3H-cyclopenta[a]phenanthren-3-one hydrochloride] |  |  | 48 | 2.4 | stable | unstable | observed | < 6 | 40 | rapid and extensive | 0.0792 ± 0.00417 | equally efficacious
